Experimental data reported in ChEMBL document CHEMBL1127988, “Differential binding and dopamine uptake activity of cocaine analogues modified at nitrogen” (Bioorg Med Chem Lett, 1994).

How the values were obtained:
[1] = species: Rattus norvegicus; assay: Inhibitory activity towards [3H]dopamine uptake in rat corpus striatum P2 synaptosomes; format: functional
[2] = species: Rattus norvegicus; assay: Maximum percent inhibition of dopamine uptake in rat corpus striatum P2 synaptosome at 1000 uM; format: functional
[3] = target: Sodium-dependent dopamine transporter (Rattus norvegicus, UniProt P23977); assay: Binding affinity to inhibit [3H]mazindol binding in rat corpus striatum P2 synaptosomes; format: subcellular
[4] = target: Sodium-dependent dopamine transporter (Rattus norvegicus) (UniProt P23977); assay: Maximum percent inhibition of [3H]mazindol binding in rat corpus striatum P2 synaptosome at 1000 uM; format: tissue-based
[5] = target: Sodium-dependent dopamine transporter (Rattus norvegicus) (UniProt P23977); conditions: Corpus striatum; 1111 uM
Description: Maximum percent inhibition of [3H]mazindol binding in rat corpus striatum P2 synaptosome at 1111 uM

Sequence of Sodium-dependent dopamine transporter (P23977 whole entry): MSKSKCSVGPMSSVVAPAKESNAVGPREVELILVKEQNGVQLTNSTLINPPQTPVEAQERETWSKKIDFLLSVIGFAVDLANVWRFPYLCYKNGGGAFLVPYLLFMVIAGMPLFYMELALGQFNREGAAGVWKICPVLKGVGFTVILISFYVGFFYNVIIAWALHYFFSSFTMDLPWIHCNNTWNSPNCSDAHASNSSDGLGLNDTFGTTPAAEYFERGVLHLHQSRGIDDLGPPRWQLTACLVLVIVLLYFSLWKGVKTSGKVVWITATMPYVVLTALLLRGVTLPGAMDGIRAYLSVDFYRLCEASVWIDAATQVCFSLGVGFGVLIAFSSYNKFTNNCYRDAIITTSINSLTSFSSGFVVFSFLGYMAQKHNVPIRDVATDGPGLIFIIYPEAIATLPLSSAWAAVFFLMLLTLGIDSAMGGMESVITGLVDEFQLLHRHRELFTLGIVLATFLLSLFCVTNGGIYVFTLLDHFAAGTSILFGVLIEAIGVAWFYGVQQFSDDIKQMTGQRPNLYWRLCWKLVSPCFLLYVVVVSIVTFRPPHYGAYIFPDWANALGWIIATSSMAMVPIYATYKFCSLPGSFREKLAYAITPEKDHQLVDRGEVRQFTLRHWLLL
Sequence of Sodium-dependent dopamine transporter (Rattus norvegicus) (P23977 whole entry): as above

`COC(=O)C1C(OC(=O)c2ccccc2)CC2CCC1N2NC(C)=O` (centres undefined) was tested, and the Ki [1] was greater than 1000 µM, the inhibition [2] was 41% and the Ki [3] was greater than 1000 µM. For the same compound, the inhibition [4] was 42%.
Compound `COC(=O)C1C(OC(=O)c2ccccc2)CC2CCC1N2[N+](=O)[O-]` (centres undefined) has a Ki [1] of 21.2 µM and a Ki [3] of 7.5 µM.
For `O=C(OC1CC2CCC3C1C(=O)NN23)c1ccccc1` (centres undefined), the Ki [1] was 115 µM, the Ki [3] was 44.9 µM and the inhibition [5] was 83%.
For `COC(=O)C1C(OC(=O)c2ccccc2)CC2CCC1N2CCO` (centres undefined), the Ki [1] was 1.6 µM and the Ki [3] was 0.7 µM.
`COC(=O)C1C(OC(=O)c2ccccc2)CC2CCC1N2CC(=O)O` (centres undefined) gave a Ki [1] of 2.1 µM and a Ki [3] of 0.38 µM.
`COC(=O)CN1C2CCC1C(C(=O)OC)C(OC(=O)c1ccccc1)C2` (centres undefined) was tested, and the Ki [1] was 1.6 µM and the Ki [3] was 0.48 µM.
`COC(=O)C1C(OC(=O)c2ccccc2)CC2CCC1N2N=O` (centres undefined) was tested, and the Ki [1] was 232 µM, the inhibition [2] was 77% and the Ki [3] was 99.5 µM. The inhibition [4] was 82%.
